{
  "source": "ChEMBL document CHEMBL1159340",
  "about": "“Antibacterial diterpenes from Calceolaria pinifolia” (J Nat Prod, 2003)",
  "key": {"Staphylococcus aureus [1]": {"test_system": "Staphylococcus aureus", "experiment": "Antimicrobial activity against methicillin-susceptible Staphylococcus aureus 375 after 18 hrs by microbroth dilution method", "assay_type": "functional"}, "Bacillus subtilis [2]": {"test_system": "Bacillus subtilis", "experiment": "Antimicrobial activity against Bacillus subtilis 327 after 18 hrs by microbroth dilution method", "assay_type": "functional"}, "Escherichia coli": {"test_system": "Escherichia coli", "experiment": "Antimicrobial activity against Escherichia coli imp 389 after 18 hrs by microbroth dilution method", "assay_type": "functional"}, "Staphylococcus aureus [3]": {"test_system": "Staphylococcus aureus", "experiment": "Antimicrobial activity against methicillin-resistant Staphylococcus aureus 310 after 18 hrs by microbroth dilution method", "assay_type": "functional"}, "[4]": {"experiment": "Toxicity in human RBC assessed as hemolysis at 2 ug/ml after 2 hrs", "assay_type": "cell-based, Erythrocyte", "conditions": "red blood cells (RBC), read-out: Activity"}, "[5]": {"experiment": "Toxicity in human RBC assessed as hemolysis at 1 ug/ml after 2 hrs", "assay_type": "cell-based, Erythrocyte", "conditions": "red blood cells (RBC), read-out: Activity"}, "[6]": {"experiment": "Toxicity in human RBC assessed as hemolysis at 16 ug/ml after 2 hrs", "assay_type": "cell-based, Erythrocyte", "conditions": "red blood cells (RBC), read-out: Activity"}, "[7]": {"experiment": "Toxicity in human RBC assessed as hemolysis at 4 ug/ml after 2 hrs", "assay_type": "cell-based, Erythrocyte", "conditions": "red blood cells (RBC), read-out: Activity"}, "[8]": {"experiment": "Toxicity in human RBC assessed as hemolysis at 8 ug/ml after 2 hrs", "assay_type": "cell-based, Erythrocyte", "conditions": "red blood cells (RBC), read-out: Activity"}, "[9]": {"experiment": "Toxicity in human RBC assessed as hemolysis at 0.5 ug/ml after 2 hrs", "assay_type": "cell-based, Erythrocyte", "conditions": "red blood cells (RBC), read-out: Activity"}, "Bacillus subtilis [10]": {"test_system": "Bacillus subtilis", "experiment": "Inhibition of DNA synthesis in Bacillus subtilis assessed as incorporation of [3H]thymidine at 0.25 ug/mL by LKB Betaplate scintillation counter relative to control", "assay_type": "functional", "design": "scale not given: the % may be the effect or the level left"}, "Bacillus subtilis [11]": {"test_system": "Bacillus subtilis", "experiment": "Inhibition of DNA synthesis in Bacillus subtilis assessed as [3H]thymidine uptake at 0.25 ug/mL by LKB Betaplate scintillation counter relative to control", "assay_type": "functional", "design": "scale not given: the % may be the effect or the level left"}, "Bacillus subtilis [12]": {"test_system": "Bacillus subtilis", "experiment": "Inhibition of protein synthesis in Bacillus subtilis assessed as incorporation of [3H]amino acid at 0.25 ug/mL by LKB Betaplate scintillation counter relative to control", "assay_type": "functional", "design": "scale not given: the % may be the effect or the level left"}, "Bacillus subtilis [13]": {"test_system": "Bacillus subtilis", "experiment": "Inhibition of RNA synthesis in Bacillus subtilis assessed as [3H]uridine uptake at 0.25 ug/mL by LKB Betaplate scintillation counter relative to control", "assay_type": "functional", "design": "scale not given: the % may be the effect or the level left"}, "Bacillus subtilis [14]": {"test_system": "Bacillus subtilis", "experiment": "Inhibition of protein synthesis in Bacillus subtilis assessed as [3H]amino acid uptake at 0.25 ug/mL by LKB Betaplate scintillation counter relative to control", "assay_type": "functional", "design": "scale not given: the % may be the effect or the level left"}, "Bacillus subtilis [15]": {"test_system": "Bacillus subtilis", "experiment": "Inhibition of RNA synthesis in Bacillus subtilis assessed as incorporation of [3H]uridine at 0.25 ug/mL by LKB Betaplate scintillation counter relative to control", "assay_type": "functional", "design": "scale not given: the % may be the effect or the level left"}, "Bacillus subtilis [16]": {"test_system": "Bacillus subtilis", "experiment": "Inhibition of protein synthesis in Bacillus subtilis assessed as [3H]amino acid uptake at 8 ug/mL by LKB Betaplate scintillation counter relative to control", "assay_type": "functional", "design": "scale not given: the % may be the effect or the level left"}, "Bacillus subtilis [17]": {"test_system": "Bacillus subtilis", "experiment": "Inhibition of DNA synthesis in Bacillus subtilis assessed as [3H]thymidine uptake at 8 ug/mL by LKB Betaplate scintillation counter relative to control", "assay_type": "functional", "design": "scale not given: the % may be the effect or the level left"}, "Bacillus subtilis [18]": {"test_system": "Bacillus subtilis", "experiment": "Inhibition of DNA synthesis in Bacillus subtilis assessed as incorporation of [3H]thymidine at 8 ug/mL by LKB Betaplate scintillation counter relative to control", "assay_type": "functional", "design": "scale not given: the % may be the effect or the level left"}, "Bacillus subtilis [19]": {"test_system": "Bacillus subtilis", "experiment": "Inhibition of RNA synthesis in Bacillus subtilis assessed as incorporation of [3H]uridine at 8 ug/mL by LKB Betaplate scintillation counter relative to control", "assay_type": "functional", "design": "scale not given: the % may be the effect or the level left"}, "Bacillus subtilis [20]": {"test_system": "Bacillus subtilis", "experiment": "Inhibition of protein synthesis in Bacillus subtilis assessed as incorporation of [3H]amino acid at 8 ug/mL by LKB Betaplate scintillation counter relative to control", "assay_type": "functional", "design": "scale not given: the % may be the effect or the level left"}, "Bacillus subtilis [21]": {"test_system": "Bacillus subtilis", "experiment": "Inhibition of RNA synthesis in Bacillus subtilis assessed as [3H]uridine uptake at 8 ug/mL by LKB Betaplate scintillation counter relative to control", "assay_type": "functional", "design": "scale not given: the % may be the effect or the level left"}},
  "data": [
    {"molecule": "CC(C)c1ccc2c(c1)CC[C@H]1[C@](C)(CO)CCC[C@]21C", "note": "[POMIFERIN A]", "values": [
      {"measurement": "MIC", "setting": "Staphylococcus aureus [1]", "result": 4, "unit": "µg/mL"},
      {"measurement": "MIC", "setting": "Bacillus subtilis [2]", "result": 8, "unit": "µg/mL"},
      {"measurement": "MIC", "setting": "Escherichia coli", "result": "> 128", "unit": "µg/mL"},
      {"measurement": "MIC", "setting": "Staphylococcus aureus [3]", "result": 4, "unit": "µg/mL"}
    ]},
    {"molecule": "C[C@@H]1[C@H](O)[C@@H](C)/C=C/C=C/C=C/C=C/C=C/C=C/C=C/[C@H](O[C@@H]2O[C@H](C)[C@@H](O)[C@H](N)[C@@H]2O)C[C@@H]2O[C@](O)(C[C@@H](O)C[C@@H](O)[C@H](O)CC[C@@H](O)C[C@@H](O)CC(=O)O[C@H]1C)C[C@H](O)[C@H]2C(=O)O", "note": "[AMPHOTERICIN B]", "values": [
      {"measurement": "hemolysis at 2 h, 2 ug/ml", "setting": "[4]", "result": 27.5, "unit": "%"},
      {"measurement": "hemolysis at 2 h, 1 ug/ml", "setting": "[5]", "result": 9.7, "unit": "%"},
      {"measurement": "hemolysis at 2 h, 16 ug/ml", "setting": "[6]", "result": 118, "unit": "%"},
      {"measurement": "hemolysis at 2 h, 4 ug/ml", "setting": "[7]", "result": 74.6, "unit": "%"},
      {"measurement": "hemolysis at 2 h, 8 ug/ml", "setting": "[8]", "result": 96.9, "unit": "%"},
      {"measurement": "hemolysis at 2 h, 0.5 ug/ml", "setting": "[9]", "result": 0, "unit": "%"}
    ]},
    {"molecule": "CO[C@H]1/C=C/O[C@@]2(C)Oc3c(C)c(O)c4c(O)c(c(/C=N/N5CCN(C)CC5)c(O)c4c3C2=O)NC(=O)/C(C)=C\\C=C\\[C@H](C)[C@H](O)[C@@H](C)[C@@H](O)[C@@H](C)[C@H](OC(C)=O)[C@@H]1C", "note": "[RIFAMPIN]", "values": [
      {"measurement": "Activity", "setting": "Bacillus subtilis [10]", "result": 108, "unit": "%"},
      {"measurement": "Activity", "setting": "Bacillus subtilis [11]", "result": 94, "unit": "%"},
      {"measurement": "Activity", "setting": "Bacillus subtilis [12]", "result": 25, "unit": "%"},
      {"measurement": "Activity", "setting": "Bacillus subtilis [13]", "result": 143, "unit": "%"},
      {"measurement": "Activity", "setting": "Bacillus subtilis [14]", "result": 90, "unit": "%"},
      {"measurement": "Activity", "setting": "Bacillus subtilis [15]", "result": 29, "unit": "%"}
    ]},
    {"molecule": "C=C[C@]1(C)CCC2=C(CC[C@@H]3[C@](C)(CO)CCC[C@@]23C)C1", "values": [
      {"measurement": "MIC", "setting": "Staphylococcus aureus [1]", "result": 32, "unit": "µg/mL"},
      {"measurement": "MIC", "setting": "Bacillus subtilis [2]", "result": 32, "unit": "µg/mL"},
      {"measurement": "MIC", "setting": "Escherichia coli", "result": "> 128", "unit": "µg/mL"},
      {"measurement": "MIC", "setting": "Staphylococcus aureus [3]", "result": 64, "unit": "µg/mL"}
    ]},
    {"molecule": "O=C(N[C@H](CO)[C@H](O)c1ccc([N+](=O)[O-])cc1)C(Cl)Cl", "note": "[CHLORAMPHENICOL]", "values": [
      {"measurement": "Activity", "setting": "Bacillus subtilis [16]", "result": 83, "unit": "%"},
      {"measurement": "Activity", "setting": "Bacillus subtilis [17]", "result": 74, "unit": "%"},
      {"measurement": "Activity", "setting": "Bacillus subtilis [18]", "result": 80, "unit": "%"},
      {"measurement": "Activity", "setting": "Bacillus subtilis [19]", "result": 166, "unit": "%"},
      {"measurement": "Activity", "setting": "Bacillus subtilis [20]", "result": 10, "unit": "%"},
      {"measurement": "Activity", "setting": "Bacillus subtilis [21]", "result": 141, "unit": "%"}
    ]},
    {"molecule": "C=C[C@]1(C)CC=C2C(CC[C@@H]3[C@](C)(C(=O)O)CCC[C@@]23C)C1", "note": "(some centres undefined)", "values": [
      {"measurement": "MIC", "setting": "Staphylococcus aureus [1]", "result": 16, "unit": "µg/mL"},
      {"measurement": "MIC", "setting": "Bacillus subtilis [2]", "result": 32, "unit": "µg/mL"},
      {"measurement": "MIC", "setting": "Escherichia coli", "result": "> 128", "unit": "µg/mL"},
      {"measurement": "MIC", "setting": "Staphylococcus aureus [3]", "result": 32, "unit": "µg/mL"}
    ]},
    {"molecule": "CC1(C)S[C@@H]2[C@H](NC(=O)Cc3ccccc3)C(=O)N2[C@H]1C(=O)O", "note": "[PENICILLIN G]", "values": [
      {"measurement": "MIC", "setting": "Staphylococcus aureus [1]", "result": 0.03, "unit": "µg/mL"},
      {"measurement": "MIC", "setting": "Bacillus subtilis [2]", "result": 0.03, "unit": "µg/mL"},
      {"measurement": "MIC", "setting": "Escherichia coli", "result": 1, "unit": "µg/mL"},
      {"measurement": "MIC", "setting": "Staphylococcus aureus [3]", "result": 128, "unit": "µg/mL"}
    ]}
  ]
}
